Reference: US7425635B2, “Prodrugs and conjugates of thiol- and selenol-containing compounds and methods of use thereof” (University of Utah Research Foundation, priority 1997, dated 2008)
Like-named read-outs stand apart in the source and are kept apart here.

What was measured:
E. coli AB1157 = assay: Toxicity in E. coli AB1157 (colony forming ability); type: cell-based
Protocol: A well characterized bacterial system was used as an initial screen for radioprotective activity of the novel compounds. A single colony of the bacteria, growing on a plate of LB medium (10 g tryptone, 5 g yeast extract, plus 5 g NaCl in 1 L water), was inoculated into 2 mL LB and incubated overnight. 20 mL LB medium were then inoculated with 600 μL of the overnight culture, and incubated with shaking at 37° C., 250 rpm. The cells were collected and washed with phosphate buffered saline. At this point the bacteria could be irradiated, treated with drug, etc., as outlined below. After dilution of the treated cells to 100 cells per 100 μL, they are plated out and incubated overnight. Cell viability is then measured by colony forming ability.
The toxicity of the compounds of interest in this system was explored.

Ugt1a1 = assay: Northern blot of liver Ugt1a1 mRNA after ip dosing; type: in vivo, mice; conditions: mean ± SEM
Protocol: (§1) Linking efficacy to biochemical parameters and a mechanism was limited in the initial study by only two parameters, [Se] and GPx activity. The in-vivo effects of selenazolidine compounds were then evaluated using, in addition to GPx, glutathione S-transferases (GSTs), quinone oxidoreductases (NQORs), UDP-glucuronosyltransferases (UGTs), and microsomal epoxide hydrolase (mEH). To investigate transcriptional changes of these classes of enzymes, it was necessary to develop a battery of cDNA probes for use in Northern blot analysis of RNA extracted from treated animals (Table 2).
(§2) Whether the selenaproline compounds had the ability to up-regulate the transcription of Phase II and/or other “protective” enzymes was first evaluated following a single dose of each (Table 3). […] The experiment was repeated but with a 7-day treatment regimen (Table 4), the time period for which the compounds were given in the diet before NNK administration in the tumor experiment reported in Table 1. […] With multiple doses, SCA induced Ugt1a9, an mRNA that was not changed with a single dose. […] The elevation in the Gst-mu transcript was unique to multiple OSCA treatment. The elevation of the GST-alpha mRNA was also seen with SCA treatment. Microsomal epoxide hydrolase mRNA was robustly elevated by multiple doses of all three selenaproline compounds, an effect not anticipated from the single dose experiment where not even minor changes were apparent.

Ugt1a6 = assay: Northern blot of liver Ugt1a6 mRNA after ip dosing; type: in vivo, mice; conditions: mean ± SEM
Protocol: as §1, §2

Ugt1a9 = assay: Northern blot of liver Ugt1a9 mRNA after ip dosing; type: in vivo, mice; conditions: for Ugt1a9 mRNA: mean ± SEM
Protocol: as §1, §2

Gst-alpha = assay: Northern blot of liver Gst-alpha mRNA after ip dosing; type: in vivo, mice; conditions: mean ± SEM
Protocol: as §1, §2

Gst-mu = assay: Northern blot of liver Gst-mu mRNA after ip dosing; type: in vivo, mice; conditions: mean ± SEM
Protocol: as §1, §2

mEH = assay: Northern blot of liver mEH mRNA after ip dosing; type: in vivo, mice; conditions: mean ± SEM
Protocol: as §1, §2

GPx = assay: Northern blot of liver GPx mRNA after ip dosing; type: in vivo, mice; conditions: mean ± SEM
Protocol: as §1, §2

[1] = sALT (hepatotoxicity) after 7 daily ip doses; type: in vivo; set-up: unit not given here; conditions: 7 daily doses ip, 1.25 mg Se/kg, with corn oil; untreated mice 37.5 ± 2.9
Description: (§3) Many of the mRNA changes seen with a single dose were not sustained with multiple dosing. Changes in Ugt transcripts after multiple dosing were noticeably absent. Unique to BSCA among the four new compounds investigated was its ability to induce Gst-alpha, Gst-mu and GPx mRNAs. For the Gst-alpha transcripts, which appeared elevated by corn oil, the BSCA increase was much greater than the vehicle alone (8-fold versus 2-fold) and was statistically significant (p<0.05). BSCA shared with PhOHSCA the ability to elevate mEH mRNA.

[2] = tested on: 'protective' enzyme mRNAs; assay: Northern blot of 'protective' enzyme mRNAs (all probes) after ip dosing; type: in vivo, mice; conditions: 7 daily doses ip, with corn oil
Protocol: as §1, §3

[3] = E. coli AB1157, cell viability by colony forming ability
[4] = 1 dose ip, 1.25 mg Se/kg in corn oil, liver RNA 24 hours after dosing
[5] = 7 daily doses ip, 1.25 mg Se/kg, with corn oil, liver RNA 24 hours after the last dose

Molecule | Toxicity in the bacterial system (E. coli AB1157; [3]) | Ugt1a1 mRNA (Ugt1a1; [5]) | Ugt1a6 mRNA (Ugt1a6; [5]) | Ugt1a9 mRNA (Ugt1a9; [4]) | Ugt1a9 mRNA (Ugt1a9; [5]) | Gst-alpha mRNA (Gst-alpha; [4]) | Gst-alpha mRNA (Gst-alpha; [5]) | Gst-mu mRNA (Gst-mu; [4]) | Gst-mu mRNA (Gst-mu; [5]) | mEH mRNA (mEH; [4]) | GPx mRNA (GPx; [5]) | sALT [1] | other results
NCCS [cysteamine, reference compound] | – | – | – | – | – | – | – | – | – | – | – | – | Toxicity in the bacterial system (E. coli AB1157): profound toxicity
NCCCN1CCSC1=O [2-oxo prodrug, 3-(3-Aminopropyl)-2-thiazolidinone] | neither WR-1065 nor its 2-oxo prodrug produced any toxicity | – | – | – | – | – | – | – | – | – | – | – | –
O=C1NCCS1 [2-oxocysteamine prodrug, 2-Thiazolidinone] | completely eliminated the profound toxicity observed with cysteamine itself | – | – | – | – | – | – | – | – | – | – | – | –
O=C(O)C1C[Se]C(c2ccccc2)N1 (mixture of isomers) [PhSCA, 2-phenyl-SCAS] | – | 1.32 ± 0.12 fold change from naive | 0.96 ± 0.04 fold change from naive | 2.14 ± 0.54 fold change from naive | 0.83 ± 0.08 fold change from naive | 0.63 ± 0.14 fold change from naive | 2.29 ± 0.68 fold change from naive | 0.74 ± 0.16 fold change from naive | 1.01 ± 0.27 fold change from naive | 0.98 ± 0.27 fold change from naive | 1.46 ± 0.35 fold change from naive | 37.3 ± 1.4 | Ugt1a1 mRNA (Ugt1a1; [4]): 1.41 ± 0.30 fold change from naive; Ugt1a6 mRNA (Ugt1a6; [4]): 1.78 ± 0.54 fold change from naive; mEH mRNA (mEH; [5]): 0.80 ± 0.15 fold change from naive; GPx mRNA (GPx; [4]): 0.74 ± 0.16 fold change from naive; Induction of 'protective' enzyme mRNAs (any) [2]: failed to induce any mRNAs
2-(2-hydroxyphenyl)-SCA [PhOHSCA] | – | 0.77 ± .04 fold change from naive | 0.99 ± 0.14 fold change from naive | 1.65 ± 0.32 fold change from naive | 1.06 ± .14 fold change from naive | 1.49 ± 0.22 fold change from naive | 1.91 ± 0.71 fold change from naive | 1.18 ± 0.32 fold change from naive | 1.54 ± 0.23 fold change from naive | 1.38 ± 0.48 fold change from naive | 1.51 ± 0.50 fold change from naive | 42.4 ± 3.0 | Ugt1a9 transcript expression compared to the corn oil effect (Ugt1a9; 1 dose ip, in corn oil, comparison with corn oil alone): significantly reduced
